Experimental data published in US8530512B2, “Broad spectrum gram-positive antimicrobials and anthelmintics with efficacy against drug-resistant strains and Mycobacterium species” (priority 2004, dated 2013).
≈ marks a conversion by molar mass, not a printed value. Where two headings read alike, the source gives them in different places.

Legend:
[1] = tested on: Corynebacterium xerosis; test: microbe, parasite or virus in culture; type: cell-based; details: Table 4, read-out: MIC
[2] = tested on: Mycobacterium intracellulare; test: MIC assay; type: cell-based; details: Mycobacterium intracellulare
[3] = tested on: community-associated methicillin-resistant S. aureus (CA-MRSA) strains; test: MIC screening against CA-MRSA strains; type: cell-based
[4] = tested on: Corynebacterium pseudodiphthericum; test: microbe, parasite or virus in culture; type: cell-based; details: Corynebacterium pseudodiphtheriticum; Table 4; Corynebacterium pseudodiphthericum; read-out: MIC
[5] = tested on: Clostridium difficile; test: MIC assay; type: cell-based; details: Clostridioides difficile, Table 4
[6] = tested on: Enterococcus faecalis ATCC 29212; test: microbe, parasite or virus in culture; type: cell-based; details: ATCC29212; Table 4; Enterococcus faecalis ATCC 29212; read-out: MIC
[7] = tested on: Streptococcus bovis; test: MIC assay; type: cell-based; details: Streptococcus equinus, Table 4
[8] = tested on: M. smegmatis; test: MIC assay; type: cell-based; details: Mycolicibacterium smegmatis; Table 6; read-out: MIC M. smegmatis
[9] = tested on: Listeria monocytogenes; test: microbe, parasite or virus in culture; type: cell-based; details: Table 4, read-out: MIC
[10] = tested on: Streptococcus mitis; test: microbe, parasite or virus in culture; type: cell-based; details: Table 4, read-out: MIC
[11] = tested on: Peptostreptococcus anaerobius; test: MIC assay; type: cell-based; details: Table 4
[12] = tested on: Bacillus cereus; test: microbe, parasite or virus in culture; type: cell-based; details: Table 4; Bacillus cereus; read-out: MIC
[13] = tested on: Gram-positive bacterial species tested; test: Minimal Bacterial Concentration Testing (MBC); type: cell-based
Protocol: Following the MIC, the last three wells showing no bacterial growth were diluted and plated onto BHI agar to do MBC testing.

[14] = tested on: Enterococcus faecium VRE 1; test: microbe, parasite or virus in culture; type: cell-based; details: Enterococcus faecium, VRE
[15] = tested on: Mycobacterium avium; test: MIC assay; type: cell-based; details: Mycobacterium avium
[16] = tested on: vancomycin-resistant enterococci; test: microbe, parasite or virus in culture; type: cell-based; details: Enterococcus, VRE, read-out: MICs
[17] = tested on: Mycobacterium chelonae; test: MIC assay; type: cell-based
[18] = tested on: Propionibacterium acnes; test: MIC assay; type: cell-based; details: Cutibacterium acnes, Table 4
[19] = tested on: Staphylococcus aureus MRSA MC-1; test: microbe, parasite or virus in culture; type: cell-based; details: Staphylococcus aureus, MRSA, read-out: MIC S. aureus MC-1
[20] = tested on: Staphylococcus aureus MW 2; test: MIC assay; type: cell-based; details: MW2, Table 4
[21] = tested on: Erysipelothrix rhusiopathiae; test: MIC assay; type: cell-based; details: Table 4
[22] = tested on: Mycobacterium bovis BCG; test: microbe, parasite or virus in culture; type: cell-based; details: Mycobacterium tuberculosis variant bovis BCG, Table 4, Mycobacterium bovis BCG
[23] = tested on: S. aureus strains tested, including MRSA; test: MIC assay
[24] = tested on: Clostridium tertium; test: MIC assay; type: cell-based; details: Table 4
[25] = tested on: Enterococcus sp., including VRE strains; test: MIC assay; details: read-out: MICs
[26] = tested on: Enterococcus faecium VRE 14; test: microbe, parasite or virus in culture; type: cell-based
[27] = tested on: S. aureus MW2; test: murine thigh abscess model of infection; details: for CFU/thigh reduced: single intraperitoneal injection
[28] = tested on: methicillin-sensitive S. aureus (MSSA) strains; test: MIC screening against MSSA strains; type: cell-based; details: Table 5, 39 tested
[29] = tested on: M. kansasii; test: MIC assay; type: cell-based; details: Mycobacterium kansasii
[30] = tested on: Streptococcus pneumoniae; test: MIC assay; type: cell-based; details: Table 4; Streptococcus pneumoniae (source UWL)
[31] = tested on: Streptococcus agalactiae; test: microbe, parasite or virus in culture; type: cell-based; details: Table 4, read-out: MIC
[32] = tested on: Staphylococcus aureus ATCC 29213; test: microbe, parasite or virus in culture; type: cell-based; details: ATCC29213
[33] = tested on: Gram-positive bacteria tested; test: organism not typed; type: cell-based
[34] = tested on: Mycobacterium fortuitum; test: MIC assay; type: cell-based; details: Mycolicibacterium fortuitum
[35] = tested on: C. elegans; test: motility assay; type: in vivo; parameters: key to Movement score, 1/1600 / Movement score, 1/800 / Movement score, 1/400 / Movement score, 1/200 / Movement score, 1/100: normal (−); slow (+); very slow (++); not motile/paralyzed (+++); details: Ive 1 ng/μL in all wells
[36] = tested on: Clostridium novyi A; test: MIC assay; type: cell-based; details: Table 4
[37] = Safety Testing with Swiss Webster Mice; type: in vivo

## COc1cc(O)cc(/C=C/c2cc3ccccc3s2)c1 [SK-03-92, (E)-3-(2-(benzo[b]thiophen-2-yl)vinyl)-5-methoxyphenol]
[1]
  MIC: 2 µg/mL (≈ 7.08 µM)
[2]; Table 6, read-out: MIC M. intracellulare
  MIC: 32 µg/mL (≈ 113 µM)
[2]; Table 4, read-out: MIC
  MIC: 32 µg/mL (≈ 113 µM)
[3]; Staphylococcus aureus, many MRSA strains
  MIC: 2 to 4 µg/mL (≈ 7.08 to 14.2 µM)
[3]; Table 5, CA-MRSA, 43 tested
  MIC range: 2 to 4 µg/mL
[4]
  MIC: 2 µg/mL (≈ 7.08 µM)
[5]
  MIC: 2 µg/mL (≈ 7.08 µM)
[6]
  MIC: 4 µg/mL (≈ 14.2 µM)
[7]
  MIC: 2 µg/mL (≈ 7.08 µM)
[8]
  MIC: 32 µg/mL (≈ 113 µM)
[9]
  MIC: 2 µg/mL (≈ 7.08 µM)
[10]
  MIC: 2 µg/mL (≈ 7.08 µM)
[11]
  MIC: 1 µg/mL (≈ 3.54 µM)
[12]
  MIC: 1 µg/mL (≈ 3.54 µM)
[13]
  MBC analysis: bactericidal
[14]
  MIC: 2 µg/mL (≈ 7.08 µM)
[15]; Table 6, read-out: MIC M. avium
  MIC: 16 µg/mL (≈ 56.7 µM)
[15]; Table 4, read-out: MIC
  MIC: 16 µg/mL (≈ 56.7 µM)
[16]
  MIC: 2 µg/mL (≈ 7.08 µM)
[17]; Table 4, Mycobacterium chelonae, read-out: MIC
  MIC: 32 µg/mL (≈ 113 µM)
[17]; Table 6, read-out: MIC M. chelonae
  MIC: 32 µg/mL (≈ 113 µM)
[18]
  MIC: 2 µg/mL (≈ 7.08 µM)
[19]
  MIC: 2 µg/mL (≈ 7.08 µM)
[20]
  MIC: 2 µg/mL (≈ 7.08 µM)
[21]
  MIC: 8 µg/mL (≈ 28.3 µM)
[22]
  MIC: 25 µg/mL (≈ 88.5 µM)
[23]; Staphylococcus aureus, MRSA, read-out: MICs
  MIC: 2 to 4 µg/mL (≈ 7.08 to 14.2 µM)
[23]; comparison among analogs of Table 6
  relative activity against S. aureus: best activity
[24]
  MIC: 1 µg/mL (≈ 3.54 µM)
[25]
  MIC: 2 to 4 µg/mL (≈ 7.08 to 14.2 µM)
[26]
  MIC: 2 µg/mL (≈ 7.08 µM)
[27]; high dose, preliminary
  CFU/thigh reduced: 3 logs
[27]; low dose, preliminary
  CFU/thigh reduced: 2.5 logs
[27]; thigh abscess model
  in vivo efficacy: in vivo efficacy
[27]; two days after drug injection, preliminary
  drop in the bacterial counts: 2-3 log
[28]
  MIC range: 1 to 2 µg/mL
[29]; Table 4, Mycobacterium kamasii, read-out: MIC
  MIC: 16 µg/mL (≈ 56.7 µM)
[29]; Table 6, read-out: MIC M. kansasii
  MIC: 16 µg/mL (≈ 56.7 µM)
[30]
  MIC: 16 µg/mL (≈ 56.7 µM)
[31]
  MIC: 2 µg/mL (≈ 7.08 µM)
[32]; Table 4, Staphylococcus aureus ATCC 29213, read-out: MIC
  MIC: 2 µg/mL (≈ 7.08 µM)
[32]; Staphylococcus aureus, Table 6, read-out: MIC S. aureus ATCC 29213
  MIC: 4 µg/mL (≈ 14.2 µM)
[33]; all of the Gram-positive bacterial species tested
  killing of Gram-positive bacterial species: killed
[33]; variety of other Gram-positive species
  MIC: 1 to 8 µg/mL (≈ 3.54 to 28.3 µM)
[34]; Table 4, Mycobacterium fortuitum, read-out: MIC
  MIC: 16 µg/mL (≈ 56.7 µM)
[34]; Table 6, read-out: MIC M. fortuitum
  MIC: 16 µg/mL (≈ 56.7 µM)
[35]; dilution 1/100 of stock (10.24 μg/μL; SK-03-92 1.024 μg/μL)
  Movement score, 1/100: +
[35]; dilution 1/200 of stock (10.24 μg/μL; SK-03-92 1.024 μg/μL)
  Movement score, 1/200: −
[35]; dilution 1/400 of stock (10.24 μg/μL; SK-03-92 1.024 μg/μL)
  Movement score, 1/400: −
[35]; dilution 1/800 of stock (10.24 μg/μL; SK-03-92 1.024 μg/μL)
  Movement score, 1/800: −
[35]; dilution 1/1600 of stock (10.24 μg/μL; SK-03-92 1.024 μg/μL), overnight 20° C.
  Movement score, 1/1600: −
[36]
  MIC: 2 µg/mL (≈ 7.08 µM)
[37]; intraperitoneal injections up to 3 g/kg, preliminary
  harm to mice: did not appear to harm the mice
[37]; ~2 g/kg dose intraperitoneally and after a repeated dose
  harm to mice: did not harm mice
